Laboratory results from publication PMC7216583 (Parasites & Vectors, 2020).
Structures can show the parent of a compound that is named as a salt. Where two headings read alike, the source gives them in different places.

Tests used:
JAK1 = system: JAK1; parameters: method as in vendor brief description; conditions: ref vendor brief description; cited from earlier work
[1] = system: Toxoplasma gondii RH-2F tachyzoites; experiment: microbe, parasite or virus in culture; conditions: 72 h
Kir2.1 = system: Kir2.1; parameters: method as in vendor brief description; conditions: ref vendor brief description, cited from earlier work
hTRPV1 = system: hTRPV1; parameters: method as in S-inhibitor catalog; conditions: in HEK293 cells; vendor brief description; ref S-inhibitor catalog; cited from earlier work
mTOR = molecular target: mTOR; parameters: method as in vendor brief description; conditions: ref vendor brief description; cited from earlier work
HDAC = system: HDAC; parameters: method as in S-inhibitor catalog; conditions: vendor brief description; ref S-inhibitor catalog; cited from earlier work
CDK = system: CDK; parameters: method as in S-inhibitor catalog; conditions: vendor brief description; ref S-inhibitor catalog; cited from earlier work
CXCR4 = system: CXCR4; parameters: method as in vendor brief description; conditions: ref vendor brief description; cited from earlier work
CYP17 = system: CYP17; parameters: method as in S-inhibitor catalog; conditions: vendor brief description; ref S-inhibitor catalog; cited from earlier work
TRPA1 channel = system: TRPA1 channel; parameters: method as in vendor brief description; conditions: ref vendor brief description, cited from earlier work
[2] = Side effects / survival of uninfected healthy mice; format: in vivo, BALB/c mice; conditions: healthy mice treated with compound, data not shown
Procedure: All mice were purchased from the Laboratory Animal Center, Wenzhou Medical University, Zhejiang, China. They were bred and handled in strict accordance with the Good Animal Practice requirements of the Animal Ethics Procedures and Guidelines of China. In a preliminary experiment aiming to assess the side effects of compounds, female BALB/c mice (6–8 weeks old, ~20 g) were orally administered with each compound at 50 mg/kg for 5 days and were monitored for 30 days. There was no obvious clinical toxicity after treatment with all compounds during this time period.

T. gondii RH strain = experiment: Murine model of acute toxoplasmosis: tissue parasite burden by B1 gene qPCR; format: in vivo, BALB/c mice; conditions: 7 dpi, 50 mg/kg oral for 5 days, n = 5, compared with vehicle control
Procedure: Meanwhile, the parasite burden in the brain, liver and spleen of infected mice was measured at 7 dpi as described previously. Briefly, whole organs were mixed in lysis buffer (50 mM Tris pH 8.0, 50 mM EDTA, 1% SDS, 50 mg/ml of proteinase K) and incubated overnight at 56 °C. Total genomic DNA from 25 mg of tissue in 100 μl of lysis buffer was then extracted using DNeasy Blood and Tissue Kit (Qiagen, Shanghai, China) following the manufacturer’s instructions. […]. Amplification was performed in a final volume of 20 μl using a ChamQ Universal SYBR qPCR Master Mix (Cat# Q711-02; Vazyme, Nanjing, China). Each reaction contained 10 μl of 2× ChamQ SYBR qPCR Master Mix, 1 μl of template DNA, 8.2 μl of distilled water and 0.4 μM each primer. The following amplification conditions were applied: 30 s at 95 °C; 40 cycles of 95 °C for 10 s, 60 °C for 30 s; and one cycle of 95 °C for 15 s, 60 °C for 1 min and 95 °C for 15 s. The number of parasites was calculated from the standard curve prepared in parallel.

ErbB1 = system: ErbB1; parameters: method as in S-inhibitor catalog; conditions: vendor brief description; ref S-inhibitor catalog; cited from earlier work
ErbB2 = system: ErbB2; parameters: method as in S-inhibitor catalog; conditions: vendor brief description; ref S-inhibitor catalog; cited from earlier work
H3-receptor = molecular target: H3-receptor; parameters: method as in vendor brief description; conditions: ref vendor brief description, cited from earlier work
HSP90 = system: HSP90; parameters: method as in S-inhibitor catalog; conditions: vendor brief description; ref S-inhibitor catalog; cited from earlier work
5-HT2B = system: 5-HT2B; parameters: method as in S-inhibitor catalog; conditions: vendor brief description; ref S-inhibitor catalog; cited from earlier work
endothelin receptor-A = molecular target: endothelin receptor-A; parameters: method as in vendor brief description; conditions: ref vendor brief description; cited from earlier work
ATR = system: ATR; parameters: method as in vendor brief description; conditions: ref vendor brief description; cited from earlier work
5-HT3A = molecular target: 5-HT3A; parameters: method as in vendor brief description; conditions: ref vendor brief description; cited from earlier work
CDK1 = system: CDK1; parameters: method as in S-inhibitor catalog; conditions: vendor brief description; ref S-inhibitor catalog; cited from earlier work
CDK9 = system: CDK9; parameters: method as in S-inhibitor catalog; conditions: vendor brief description; ref S-inhibitor catalog; cited from earlier work
[3] = system: Toxoplasma gondii RH-2F tachyzoites; conditions: preliminary screen of compound library; mean
Akt1 = system: Akt1; parameters: method as in vendor brief description; conditions: ref vendor brief description; cited from earlier work
[4] = molecular target: epidermal growth factor receptor (EGFR); parameters: method as in vendor brief description; conditions: ref vendor brief description; read-out: IC50 EGFR; cited from earlier work
Smoothened (Smo) = system: Smoothened (Smo); parameters: method as in S-inhibitor catalog; conditions: vendor brief description; ref S-inhibitor catalog; cited from earlier work
c-Met = system: c-Met; parameters: method as in S-inhibitor catalog; conditions: vendor brief description; ref S-inhibitor catalog; cited from earlier work
FGFR1 = conditions: read-out: IC50, FGFR1; vendor brief description; ref S-inhibitor catalog; cited from earlier work
VEGFR1 = system: VEGFR1; parameters: method as in library vendor description; conditions: ref library vendor description; cited from earlier work
PDGFR = conditions: read-out: IC50 PDGFR; ref library vendor description; cited from earlier work
Bcl-2 = molecular target: Bcl-2; parameters: method as in library vendor description; conditions: ref library vendor description; cited from earlier work
[5] = molecular target: histamine 1 (H1) receptor; parameters: method as in vendor brief description; conditions: ref vendor brief description; cited from earlier work
[6] = molecular target: N-methyl-D-aspartate (NMDA) receptor; parameters: method as in vendor brief description; conditions: ref vendor brief description; cited from earlier work
[7] = read-out: Parasite inhibition (%) mean, preliminary screen of compound library, mean
[8] = read-out: Parasite inhibition (%) mean, preliminary screen, mean

## N#CC[C@@H](C1CCCC1)n1cc(-c2ncnc3[nH]ccc23)cn1 [S-Ruxolitinib]
JAK1
  IC50: […]
[1]; [7]
  inhibition of growth at 5 µM: 10.7%

## COc1ccc(CNCc2cccc3ccccc23)cc1 [ML133 HCl]
Kir2.1; pH 7.4
  IC50: 1800 nM
Kir2.1; pH 8.5
  IC50: 290 nM
[1]; [7]
  inhibition of growth at 5 µM: 0.7%

## O=C(Nc1ccccc1Br)N[C@@H]1CCN(c2ccc(C(F)(F)F)cn2)C1 [SB705498]
hTRPV1
  pIC50, hTRPV1: 7.1
  pKi, hTRPV1: 7.6
[1]; [7]
  inhibition of growth at 5 µM: 0.6%

## CCNC(=O)Nc1ccc(-c2nc3c(c(N4CCOC[C@@H]4C)n2)CCN(C2COC2)C3)cc1 [GDC-0349]
mTOR
  Ki: 3.8 nM
[1]; [7]
  inhibition of growth at 5 µM: -13.8%

## CN(C)c1ccc(C(=O)NCCCCCCC(=O)NO)cc1 [M344]
HDAC
  IC50: 100 nM
[1]; [7]
  inhibition of growth at 5 µM: 44.6%

## COc1ccc(F)c(F)c1C(=O)c1cnc(NC2CCN(S(C)(=O)=O)CC2)nc1N [R547]
CDK
  IC50: 80 nM
  Ki: 1 to 3 nM
[1]; [7]
  inhibition of growth at 5 µM: 11.7%

## c1ccc(NCc2ccc(CNc3ccccn3)cc2)nc1 [WZ 811]
CXCR4
  EC50: 0.3 nM
[1]; [7]
  inhibition of growth at 5 µM: -5.7%

## CC(=O)O[C@H]1CC[C@@]2(C)C(=CC[C@H]3[C@H]2CC[C@]2(C)C(c4cccnc4)=CC[C@@H]32)C1 [Abiraterone Acetate (CB7630)]
CYP17
  IC50: 72 nM
[1]; [7]
  inhibition of growth at 5 µM: 0.7%

## CC(C)c1ccc(NC(=O)Cn2cnc3c2c(=O)n(C)c(=O)n3C)cc1 [HC-030031]
TRPA1 channel; AITC-evoked, read-out: IC50 AITC-evoked calcium influx
  IC50: 6200 nM
TRPA1 channel; formalin-evoked, read-out: IC50 formalin-evoked calcium influx
  IC50: 5300 nM
[1]; [7]
  inhibition of growth at 5 µM: 1.6%

## CCc1nc(N)nc(N)c1-c1ccc(Cl)cc1 [pyrimethamine, Pyrimethamine]
[2]
  survival of healthy (uninfected) mice: survived
T. gondii RH strain
  parasite burden in brain, liver and spleen: lowest parasite burden in tissue

## C[C@@H]1COC(Nc2ccc3ncnc(Nc4ccc(OCc5nccs5)c(Cl)c4)c3c2)=N1 [ARRY334543]
ErbB1
  IC50: 7 nM
ErbB2
  IC50: 2 nM
[1]; [7]
  inhibition of growth at 5 µM: 12.4%

## CNCCc1ccccn1 [Betahistine 2HCl]
H3-receptor; read-out: IC50 histamine H3 receptors
  IC50: 1900 nM
[1]; [7]
  inhibition of growth at 5 µM: 3.2%

## CCc1c(O)cc(O)c(C(=O)c2ccc(OCCN3CCOCC3)c(OC)c2)c1CC(=O)N(CCOC)CCOC [KW-2478]
HSP90
  IC50: 3.8 nM
[1]; [7]
  inhibition of growth at 5 µM: 7.8%

## CC(C)c1cc(-c2ccc(F)c3ccccc23)nc(N)n1 [RS-127445]
5-HT2B
  pIC50, 5-HT2B: 10.4
  pKi, 5-HT2B: 9.5
[1]; [7]
  inhibition of growth at 5 µM: -0.7%

## COc1ccccc1Oc1c(NS(=O)(=O)c2ccc(C(C)(C)C)cc2)nc(-c2ncccn2)nc1OCCO [Bosentan Hydrate]
Endothelin receptor-A
  Ki: […]
[1]; [7]
  inhibition of growth at 5 µM: 5.3%

## CS(=O)(=O)c1ccc(-c2cnc(N)c(C(=O)Nc3ccccc3)n2)cc1 [VE-821]
ATR
  IC50: 26 nM
  Ki: 13 nM
[1]; [7]
  inhibition of growth at 5 µM: -7.9%

## CC(C)n1nc(-c2ccc3oc(N)nc3c2)c2c(N)ncnc21 [INK 128 (MLN0128)]
mTOR
  IC50: 1 nM
[1]; [7]
  inhibition of growth at 5 µM: 27.8%

## CN1CCN(c2nc3ccccc3nc2Cl)CC1 [VUF 10166]
5-HT3A
  Ki: 0.04 nM
[1]; [7]
  inhibition of growth at 5 µM: 0.4%

## Cc1ncc(-c2ccnc(Nc3ccc(S(C)(=O)=O)cc3)n2)n1C(C)C [AZD5438]
CDK1
  IC50: 16 nM
CDK9
  IC50: 20 nM
[1]; [7]
  inhibition of growth at 5 µM: 6.8%

## AZD5363
[3]
  Parasite inhibition (%) mean: 33.4%
Akt1
  IC50: 3 nM

## C#Cc1cccc(Nc2ncnc3cc4c(cc23)OCCOCCOCCO4)c1 [Icotinib]
[4]
  IC50: 5 nM
[1]; [7]
  inhibition of growth at 5 µM: 13.6%

## Cc1cnc(-c2cc(N3CCN(C(=O)CCS(C)(=O)=O)CC3)ncc2Cl)c(C)c1 [PF-5274857]
Smoothened (Smo)
  IC50: 5.8 nM
  Ki: 4.6 nM
[1]; [7]
  inhibition of growth at 5 µM: -0.8%

## Cn1cc(-c2ccc3ncc(Cc4ccc5ncccc5c4)n3n2)cn1 [NVP-BVU972]
c-Met
  IC50: 14 nM
[1]; [7]
  inhibition of growth at 5 µM: 38.8%

## CC(C)[C@H](C(=O)Nc1ccc(C(=O)NO)cc1)c1ccccc1 [AR-42 (HDAC-42)]
HDAC
  IC50: 30 nM
[1]; [7]
  inhibition of growth at 5 µM: 61%

## C[C@]12CC[C@H](O)CC1=CCC1C2CC[C@]2(C)C(n3cnc4ccccc43)=CCC12 (some centres unmarked) [Galeterone (TOK-001)]
CYP17
  IC50: 300 nM
[1]; [7]
  inhibition of growth at 5 µM: 0.4%

## O=C(c1ccc(OCCCc2cnc[nH]2)cc1)C1CC1 [Ciproxifan]
H3-receptor; read-out: IC50 H3-receptor
  IC50: 9.2 nM
[1]; [7]
  inhibition of growth at 5 µM: 0.5%

## AZD4547
FGFR1
  IC50: 0.2 nM

## Cc1ccc(Nc2nccc(N(C)c3ccc4c(C)n(C)nc4c3)n2)cc1S(N)(=O)=O [Pazopanib HCl]
VEGFR1
  IC50: 10 nM
PDGFR
  IC50: 84 nM
[1]; [8]
  inhibition of growth at 5 µM: -2.6%

## COC1=CC(c2cc3ccccc3[nH]2)=N/C1=C\c1[nH]c(C)cc1C [Obatoclax mesylate (GX15-070)]
Bcl-2
  Ki: 220 nM
[1]; [8]
  inhibition of growth at 5 µM: 52.7%

## O=C(O)CCCN1CCC(O[C@@H](c2ccc(Cl)cc2)c2ccccn2)CC1.O=S(=O)(O)c1ccccc1 [Bepotastine Besilate]
[5]
  pIC50 histamine 1 (H1) receptor: Bepotastine is a non-sedating, selective antagonist of histamine 1 (H1) receptor with pIC50 of 5.7.
[1]; [7]
  inhibition of growth at 5 µM: 50.1%

## C[C@]12N[C@H](Cc3ccccc31)c1ccccc12 [Dizocilpine (MK 801)]
[6]
  Ki: 30.5 nM
[1]; [7]
  inhibition of growth at 5 µM: 0.4%
